Measurements published in patent US12479847B2 (DANA-FARBER CANCER INSTITUTE, INC., priority 2019, dated 2025).

Tests used:
Test in all cases: KINOMEscan (ScanMAX) kinase profiling
Type in all cases: binding
[1] = target: T1, panel of 468 kinases (Homo sapiens, UniProt Q8IWQ3); settings: BRSK2; 1 μM; read-out: % control
T1 construct: purchased KINOMEscan (ScanMAX) service
T1 sequence (Q8IWQ3 1-736): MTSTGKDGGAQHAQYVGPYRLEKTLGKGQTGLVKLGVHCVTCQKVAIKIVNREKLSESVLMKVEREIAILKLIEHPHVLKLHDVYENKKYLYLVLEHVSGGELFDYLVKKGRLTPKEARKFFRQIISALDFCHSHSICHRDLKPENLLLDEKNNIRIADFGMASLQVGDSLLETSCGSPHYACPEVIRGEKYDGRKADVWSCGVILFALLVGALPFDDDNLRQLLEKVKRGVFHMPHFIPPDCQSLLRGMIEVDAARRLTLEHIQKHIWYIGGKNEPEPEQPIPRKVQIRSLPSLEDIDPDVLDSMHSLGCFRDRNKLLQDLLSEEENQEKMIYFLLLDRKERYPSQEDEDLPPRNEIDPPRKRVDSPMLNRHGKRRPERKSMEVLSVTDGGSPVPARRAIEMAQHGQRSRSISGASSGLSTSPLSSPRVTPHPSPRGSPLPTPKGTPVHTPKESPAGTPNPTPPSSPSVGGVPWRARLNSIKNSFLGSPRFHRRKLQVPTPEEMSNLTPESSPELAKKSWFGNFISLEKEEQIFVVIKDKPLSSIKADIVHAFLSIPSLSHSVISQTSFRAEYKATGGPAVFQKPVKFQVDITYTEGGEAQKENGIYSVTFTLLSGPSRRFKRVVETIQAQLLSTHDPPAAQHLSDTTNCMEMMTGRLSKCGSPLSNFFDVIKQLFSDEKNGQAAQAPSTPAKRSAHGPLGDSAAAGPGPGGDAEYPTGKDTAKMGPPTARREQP

[2] = target: T2, panel of 468 kinases (Homo sapiens, UniProt Q59H18); settings: TNNI3K; 1 μM; read-out: % control
T2 construct: purchased KINOMEscan (ScanMAX) service
T2 sequence (Q59H18 1-835): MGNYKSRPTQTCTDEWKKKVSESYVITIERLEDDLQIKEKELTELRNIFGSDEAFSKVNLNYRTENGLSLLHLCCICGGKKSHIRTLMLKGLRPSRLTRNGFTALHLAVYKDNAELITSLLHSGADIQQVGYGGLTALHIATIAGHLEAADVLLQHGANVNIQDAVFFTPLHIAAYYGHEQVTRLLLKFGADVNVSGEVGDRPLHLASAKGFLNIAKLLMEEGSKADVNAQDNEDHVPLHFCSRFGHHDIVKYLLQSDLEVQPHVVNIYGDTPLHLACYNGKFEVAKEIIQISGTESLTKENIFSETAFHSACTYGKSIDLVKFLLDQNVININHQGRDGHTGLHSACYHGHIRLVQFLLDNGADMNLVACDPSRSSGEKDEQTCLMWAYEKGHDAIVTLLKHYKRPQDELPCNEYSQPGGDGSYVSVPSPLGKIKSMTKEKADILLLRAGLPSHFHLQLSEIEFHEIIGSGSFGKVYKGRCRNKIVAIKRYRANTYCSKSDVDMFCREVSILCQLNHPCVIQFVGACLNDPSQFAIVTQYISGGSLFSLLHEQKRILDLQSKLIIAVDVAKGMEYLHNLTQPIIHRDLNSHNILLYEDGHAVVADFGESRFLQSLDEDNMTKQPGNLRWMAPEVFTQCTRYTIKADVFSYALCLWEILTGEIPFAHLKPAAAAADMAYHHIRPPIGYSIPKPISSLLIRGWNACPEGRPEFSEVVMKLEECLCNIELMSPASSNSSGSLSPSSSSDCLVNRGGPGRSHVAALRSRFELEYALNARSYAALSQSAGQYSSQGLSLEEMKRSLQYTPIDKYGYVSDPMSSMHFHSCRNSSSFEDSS

[3] = target: T3, panel of 468 kinases (Homo sapiens, UniProt P36896); settings: ACVR1B; 1 μM; read-out: % control
T3 construct: purchased KINOMEscan (ScanMAX) service
T3 sequence (P36896 24-505): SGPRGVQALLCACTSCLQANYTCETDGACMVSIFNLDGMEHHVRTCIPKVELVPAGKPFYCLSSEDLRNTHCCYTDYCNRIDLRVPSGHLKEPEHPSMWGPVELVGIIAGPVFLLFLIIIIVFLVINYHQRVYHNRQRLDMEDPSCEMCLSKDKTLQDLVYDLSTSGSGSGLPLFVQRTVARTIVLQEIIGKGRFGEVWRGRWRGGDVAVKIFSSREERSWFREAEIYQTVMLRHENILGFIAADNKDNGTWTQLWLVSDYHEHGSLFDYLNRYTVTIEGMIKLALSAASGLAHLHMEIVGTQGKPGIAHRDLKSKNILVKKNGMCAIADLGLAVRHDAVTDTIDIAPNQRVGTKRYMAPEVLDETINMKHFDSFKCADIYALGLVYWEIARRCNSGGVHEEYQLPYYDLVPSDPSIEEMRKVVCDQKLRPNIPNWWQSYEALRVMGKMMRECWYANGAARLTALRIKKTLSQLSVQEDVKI

[4] = target: T4, panel of 468 kinases (Homo sapiens, UniProt Q9Y2H9); settings: MAST1; 1 μM; read-out: % control
T4 construct: purchased KINOMEscan (ScanMAX) service
T4 sequence (Q9Y2H9 whole entry): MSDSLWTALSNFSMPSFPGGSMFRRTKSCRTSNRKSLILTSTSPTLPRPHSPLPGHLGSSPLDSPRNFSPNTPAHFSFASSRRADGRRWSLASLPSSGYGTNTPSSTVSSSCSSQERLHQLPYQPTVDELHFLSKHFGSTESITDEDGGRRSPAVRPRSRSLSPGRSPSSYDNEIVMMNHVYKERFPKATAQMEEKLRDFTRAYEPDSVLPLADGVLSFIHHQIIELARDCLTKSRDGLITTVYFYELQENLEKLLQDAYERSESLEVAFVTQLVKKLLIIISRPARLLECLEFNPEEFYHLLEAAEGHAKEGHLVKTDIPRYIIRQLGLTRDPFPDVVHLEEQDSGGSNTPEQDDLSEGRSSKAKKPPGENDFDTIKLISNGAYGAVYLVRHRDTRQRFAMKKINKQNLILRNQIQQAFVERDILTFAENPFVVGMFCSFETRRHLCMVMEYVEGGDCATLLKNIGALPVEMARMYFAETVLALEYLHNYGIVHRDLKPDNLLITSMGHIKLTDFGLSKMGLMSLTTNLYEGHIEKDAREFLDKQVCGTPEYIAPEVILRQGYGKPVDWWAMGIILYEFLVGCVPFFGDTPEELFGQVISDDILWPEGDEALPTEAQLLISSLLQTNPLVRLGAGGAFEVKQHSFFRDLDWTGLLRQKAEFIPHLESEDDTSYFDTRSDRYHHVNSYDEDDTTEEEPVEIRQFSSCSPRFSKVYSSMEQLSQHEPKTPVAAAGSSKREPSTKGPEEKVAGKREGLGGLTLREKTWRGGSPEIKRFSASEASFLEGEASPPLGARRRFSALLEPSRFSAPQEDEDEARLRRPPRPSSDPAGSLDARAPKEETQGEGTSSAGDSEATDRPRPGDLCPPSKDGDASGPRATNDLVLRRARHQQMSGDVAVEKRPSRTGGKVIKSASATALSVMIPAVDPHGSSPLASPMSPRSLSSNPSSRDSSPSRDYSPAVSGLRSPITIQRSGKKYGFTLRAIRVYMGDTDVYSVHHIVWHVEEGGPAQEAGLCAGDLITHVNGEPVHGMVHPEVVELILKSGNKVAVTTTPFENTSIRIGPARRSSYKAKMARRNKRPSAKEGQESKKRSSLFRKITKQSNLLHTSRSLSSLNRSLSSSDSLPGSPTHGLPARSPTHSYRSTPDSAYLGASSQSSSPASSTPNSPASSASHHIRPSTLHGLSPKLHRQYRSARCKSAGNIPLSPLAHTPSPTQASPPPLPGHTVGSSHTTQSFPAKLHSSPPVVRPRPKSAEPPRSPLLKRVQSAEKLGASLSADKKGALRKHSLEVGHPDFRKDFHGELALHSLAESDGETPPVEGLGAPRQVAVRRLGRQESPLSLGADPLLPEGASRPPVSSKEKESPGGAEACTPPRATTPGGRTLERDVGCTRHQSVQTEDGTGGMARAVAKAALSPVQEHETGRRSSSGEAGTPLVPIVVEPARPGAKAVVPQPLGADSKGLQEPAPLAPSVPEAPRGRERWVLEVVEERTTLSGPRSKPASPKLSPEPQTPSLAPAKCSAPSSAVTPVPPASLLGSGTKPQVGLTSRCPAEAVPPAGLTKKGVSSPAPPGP

Q: With CNc1nc(Nc2ccc(S(=O)(=O)N3CCC(N4CCOCC4)CC3)cc2OC)nc2[nH]cc(Cl)c12 [Compound 12, 5-chloro-N2-(2-methoxy-4-((4-morpholinopiperidin-1-yl)sulfonyl)phenyl)-N4-methyl-7H-pyrrolo[2,3-d]pyrimidine-2,4-diamine] as the compound, how does the remaining binding at 1 µM [1] read?
A: 87%

Q: What about the remaining binding at 1 µM [2] of the same compound?
A: 100%

Q: And the remaining binding at 1 µM [3]?
A: 100%

Q: What about the remaining binding at 1 µM [4] of the same compound?
A: 100%

Q: Which remaining binding at 1 µM [1] does the source give for CNc1nc(Nc2ccc(C(=O)N3CCC(N4CCOCC4)CC3)c3c2OCO3)nc2[nH]cc(Cl)c12 [Compound 75, (7-((5-chloro-4-(methylamino)-7H-pyrrolo[2,3-d]pyrimidin-2-yl)amino)benzo[d][1,3]dioxol-4-yl)(4-morpholinopiperidin-1-yl)methanone] here?
A: 83%

Q: And the remaining binding at 1 µM [2]?
A: 100%

Q: And the remaining binding at 1 µM [3]?
A: 100%

Q: And the remaining binding at 1 µM [4]?
A: 93%

Q: With CNc1nc(Nc2ccc(P3(=O)CCN(C4CCOCC4)CC3)cc2OC)nc2[nH]cc(Cl)c12 [Compound 77, 4-(4-((5-chloro-4-(methylamino)-7H-pyrrolo[2,3-d]pyrimidin-2-yl)amino)-3-methoxyphenyl)-1-(tetrahydro-2H-pyran-4-yl)-1,4-azaphosphinane 4-oxide] as the compound, how does the remaining binding at 1 µM [1] read?
A: 96%

Q: What about the remaining binding at 1 µM [2] of the same compound?
A: 100%

Q: And the remaining binding at 1 µM [3]?
A: 100%

Q: What about the remaining binding at 1 µM [4] of the same compound?
A: 97%
